pIC50: −log10 of the molar value.
Legend:
[1] = Relative inhibition of PDE6 from bovine retina and PDE5 from human platelets
[2] = Relative inhibition of PDE4 from rat kidney and PDE5 from human platelets
[3] = Relative inhibition of PDE2 from rat kidney and PDE5 from human platelets
[4] = Relative inhibition of PDE1 from bovine heart and PDE5 from human platelets
[5] = biological target: cGMP-specific 3',5'-cyclic phosphodiesterase (Homo sapiens, UniProt O76074); assay: Inhibition of PDE5 from human platelets

Row | SMILES | Ratio [1] | Ratio [2] | Ratio [3] | Ratio [4] | pIC50 [5]
1 | CCCOc1ccc(S(=O)(=O)N2CC[C@@H](N(C)C)C2)cc1-c1nc(O)c2c(NCc3ccc(F)cc3)nc3nn(Cc4ccc(OC)cc4)cc3c2n1 | 15 | 2500 | > 10000 |  | 
2 | CCCOc1ccc(S(=O)(=O)N2CC[C@@H](N(C)C)C2)cc1-c1nc(O)c2c(NCc3ccc(OC)c(Cl)c3)[nH]c3nncc-3c2n1 | 180 |  | > 10000 |  | 
3 | CCCOc1ccc(S(=O)(=O)N2CC[C@@H](N(C)C)C2)cc1-c1nc(O)c2c(Cl)nc3nn(Cc4ccc(OC)cc4)cc3c2n1 | 17 | 310 | 1200 | 130 | 
4 | CCCOc1ccc(S(=O)(=O)N2CC[C@@H](N(C)C)C2)cc1-c1nc(O)c2c[nH]c3nncc-3c2n1 | 22 | 3200 | 2000 | 400 | 
5 | CCCOc1ccc(S(=O)(=O)N2CC[C@@H](N(C)C)C2)cc1-c1nc2c(cnc3n[nH]cc32)c(=O)[nH]1 |  |  |  |  | 8.68
6 | CCCOc1ccc(S(=O)(=O)N2CC[C@@H](N(C)C)C2)cc1-c1nc(O)c2c(NCc3ccc(F)cc3)[nH]c3nncc-3c2n1 | 160 | > 100000 |  |  | 
7 | CCCOc1ccc(S(=O)(=O)N2CC[C@@H](N(C)C)C2)cc1-c1nc2c(c(NCc3ccc(F)cc3)nc3n[nH]cc32)c(=O)[nH]1 |  |  |  |  | 9.51
8 | CCCOc1ccc(S(=O)(=O)N2CC[C@@H](N(C)C)C2)cc1-c1nc2c(c(Cl)nc3nn(Cc4ccc(OC)cc4)cc32)c(=O)[nH]1 |  |  |  |  | 7.89
9 | CCCOc1ccc(S(=O)(=O)N2CC[C@@H](N(C)C)C2)cc1-c1nc2c(c(NCc3ccc(F)cc3)nc3nn(Cc4ccc(OC)cc4)cc32)c(=O)[nH]1 |  |  |  |  | 8.77
